Laboratory results as given in EP0648759A1, “Antihistaminic compounds, process for their preparation and pharmaceutical compositions containing them” (ERREGIERRE S.p.A., priority 1993, dated 1995).

Legend:
H₁ receptor [1] = target: T1, H₁ receptor (Cavia porcellus, UniProt P31389); assay: Binding assay under saturation kinetics conditions (Scatchard); design: species or system guinea pig; details: in the presence of TFZ 2 x 10⁻⁷ M
T1 construct: A portion of terminal ileum was excised and immersed in a bath for isolated organ; from tissue; host or cells: guinea pig isolated terminal ileum
T1 sequence (P31389 whole entry): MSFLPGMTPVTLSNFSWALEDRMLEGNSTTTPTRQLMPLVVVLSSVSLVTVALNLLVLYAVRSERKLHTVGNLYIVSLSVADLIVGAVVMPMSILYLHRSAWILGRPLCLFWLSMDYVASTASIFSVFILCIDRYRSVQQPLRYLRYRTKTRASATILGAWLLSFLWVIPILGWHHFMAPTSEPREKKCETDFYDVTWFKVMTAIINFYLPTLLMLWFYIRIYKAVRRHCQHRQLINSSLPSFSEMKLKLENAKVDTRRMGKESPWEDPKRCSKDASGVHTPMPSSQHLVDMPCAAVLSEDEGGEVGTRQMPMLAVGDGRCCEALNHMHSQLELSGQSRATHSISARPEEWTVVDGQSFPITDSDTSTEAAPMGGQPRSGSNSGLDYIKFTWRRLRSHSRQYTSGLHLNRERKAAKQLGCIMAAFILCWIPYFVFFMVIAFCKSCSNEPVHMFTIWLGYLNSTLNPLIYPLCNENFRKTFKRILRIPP
Description: These assays (Scatchard) were carried out under the same incubation conditions and according to the conclusive test method described under paragraph 1a), with the exception that the radioligand concentration was changed according to a range of concentrations comprised between 0.3 and 10 nM, in the presence of a concentration of antagonist TFZ of 2 x 10⁻⁷ M.

[2] = test system: muscarinic cholinergic receptor; assay: Functional activity on guinea pig isolated ileum, acetylcholine-induced contractions; assay type: cell-based; details: TFZ 5 x 10⁻⁷ M, dose corresponding to the IC₅₀ effective against histamine
Description: (§1) The test was essentially meant to characterize the type of activity of the molecules under examination by checking their antagonist activity versus H₁ receptor. To this end, the guinea pig isolated ileum was used for two different tests: a) evaluation of the antagonist activity towards the agonist histamine; b) evaluation of the antagonist activity towards the agonist acetylcholine. Said tests were carried out to check the specificity and selectivity levels of the moleculas under examination.
(§2) Male and female guinea pigs weighing approx. 250 g were used. A portion of terminal ileum was excised and immersed in a bath for isolated organ, in Tyrode solution, at 37°C. The antagonist activity was evaluated by determining the ability of the studied drug to modify the dose-effect curve built with increasing doses of agonist alone. Furthermore, in another series of experiments, increasing doses of the molecules under examination were tested in comparison with a submaximal dose of agonist.
With a view to estimating the antagonist specificity level of the molecule TFZ under examination and taking into account the anticholinergic activity often associated with antihistaminic molecules, the capability of TFZ of antagonizing the acetylcholine (ACh) contraction effect on guinea pig isolated ileum was tested. […]

H₁ receptor [3] = target: T1, H₁ receptor; assay: Functional activity on guinea pig isolated ileum, histamine-induced contractions; assay type: cell-based
Description: as §1, §2
The dose of histamine used was 6.8x10⁻⁸ M. The percentage of inhibition found after adding the tested drug to the bath for isolated organ versus the response obtained from the agonist alone was calculated. Six detections were carried out for each drug concentration. The results, calculated in terms of IC₅₀, corresponded to the drug concentrations responsible for a 50% reduction in the submaximal concentration of the agonist alone.

CC(C)(c1ccc(C(O)CCCN2CCC(C(O)(c3ccccc3)c3ccccc3)CC2)cc1)c1nn[nH]n1 (racemic) [TFZ, p-1-hydroxy-4-(4-hydroxydiphenylmethyl-1-piperidinyl)-butyl-2-(1H-tetrazol-5-yl)-isopropyl benzene]
Bmax (density of the binding sites) (H₁ receptor [1]): no significant change
inhibitory activity against acetylcholine (ACh) contraction effect [2]: no inhibitory activity
IC₅₀, inhibition of histamine-submaximal contraction (H₁ receptor [3]; histamine 6.8 x 10⁻⁸ M, comparison in words, numbers only in Fig. 5): completely superimposable to that of MET I
agonist activity (contraction of the ileum smooth muscles) (H₁ receptor [3]; increasing doses added to the bath perfusion liquid, no agonist): no agonist activity
type of antagonist activity towards histamine (Lineweaver-Burk) (H₁ receptor [3]; three TFZ concentrations, Fig. 4): competitive antagonist activity
